For orientation: IC50 means the point on the concentration scale where inhibition reaches its midpoint.

Chain of PD-1/PD-L1 (Q9NZQ7 19-238): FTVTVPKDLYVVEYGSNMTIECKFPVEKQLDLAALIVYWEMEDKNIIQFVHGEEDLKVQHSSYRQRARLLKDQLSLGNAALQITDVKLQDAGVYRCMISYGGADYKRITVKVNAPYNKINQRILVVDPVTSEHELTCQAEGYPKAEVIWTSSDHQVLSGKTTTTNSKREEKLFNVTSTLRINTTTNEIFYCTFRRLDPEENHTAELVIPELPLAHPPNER

The target of the first assay is PD-1/PD-L1 (Homo sapiens (Human), UniProt Q9NZQ7). Nature of the assay: PD-1/PD-L1 Binding Assay (Alphascreen). The conditions noted are these: numeric values. A digest of the protocol:
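PD-1/PD-L1 binding detected by anti-6×His acceptor and streptavidin donor beads after 120 min in the dark at 25 °C. Beforehand, the two proteins were incubated 15 min at 25 °C with inhibitor at 0.015–300 nM (1% DMSO). IC50 comes from a log concentration–response curve.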
`Cc1c(-c2nc3cc(CN4CC[C@H](C(=O)O)C4)c(OC(F)F)cc3o2)cccc1-c1cccc(-c2nc3cc(CN4CC(C)(C)C4)c(OC(F)F)cc3o2)c1C` [Example 86, (S)-1-((6-(difluoromethoxy)-2-(3′-(6-(difluoromethoxy)-5-((3,3-dimethylazetidin-1-yl)methyl)benzo[d]oxazol-2-yl)-2,2′-dimethyl-[1,1′-biphenyl]-3-yl)benzo[d]oxazol-5-yl)methyl)pyrrolidine-3-carboxylic acid] registered an IC50 of 11 nM. This lies in the double-digit nanomolar range.

In the case of `Cc1c(-c2nc3cc(CN4CCC[C@@H]4C(=O)O)c(OC(F)F)cc3o2)cccc1-c1cccc(-c2nc3cc(CN4CCC(C)C4)cc(C(F)(F)F)c3o2)c1C` (stereo partly drawn) [Example 90, ((6-(difluoromethoxy)-2-(2,2′-dimethyl-3′-(5-((3-methylpyrrolidin-1-yl)methyl)-7-(trifluoromethyl)benzo [d]oxazol-2-yl)-[1,1′-biphenyl]-3-yl)benzo[d]oxazol-5-yl)methyl)-D-proline], the IC50 is 0.88 nM.

`Cc1c(-c2nc3cc(CN4CCC[C@H]4C(=O)O)c(OC(F)F)cc3o2)cccc1-c1cccc(-c2nc3cc(CN4CCC4)cc(C)c3o2)c1C` [Example 94, ((2-(3′-(5-(azetidin-1-ylmethyl)-7-methylbenzo[d]oxazol-2-yl)-2,2′-dimethyl-[1,1′-biphenyl]-3-yl)-6-(difluoromethoxy)benzo[d]oxazol-5-yl)methyl)-L-proline]: the IC50 was 1.9 nM.

Take `CCNCc1cc2nc(-c3cccc(-c4cccc(-c5nc6cc(CN7CCC[C@H]7C(=O)O)c(OC(F)F)cc6o5)c4C)c3C)oc2cc1F` [Example 96, ((6-(difluoromethoxy)-2-(3′-(5-((ethylamino)methyl)-6-fluorobenzo[d]oxazol-2-yl)-2,2′-dimethyl-[1,1′-biphenyl]-3-yl)benzo[d]oxazol-5-yl)methyl)-L-proline]: the IC50 is 0.6 nM. This IC50 lies about 3.2-fold lower than the previous one.

With `Cc1c(-c2nc3cc(CN[C@@H]4CCC[C@@H]4O)ccc3o2)cccc1-c1cccc(-c2nc3cc(CN4CCC[C@H]4C(=O)O)c(OC(F)F)cc3o2)c1C` [Example 99, ((6-(difluoromethoxy)-2-(3′-(5-((((1R,2S)-2-hydroxycyclopentyl)amino)methyl)benzo[d]oxazol-2-yl)-2,2′-dimethyl-[1,1′-biphenyl]-3-yl)benzo[d]oxazol-5-yl)methyl)-L-proline], the IC50 came to 0.82 nM.

In turn, `Cc1c(-c2nc3cc(CN4CCC4(C)O)ccc3o2)cccc1-c1cccc(-c2nc3cc(CN4CCC[C@H]4C(=O)O)c(OC(F)F)cc3o2)c1C` (stereo partly drawn) [Example 104, ((6-(difluoromethoxy)-2-(3′-(5-((2-hydroxy-2-methylazetidin-1-yl)methyl)benzo[d]oxazol-2-yl)-2,2′-dimethyl-[1,1′-biphenyl]-3-yl)benzo[d]oxazol-5-yl)methyl)-L-proline] yielded an IC50 of 0.19 nM.

The assay is the same for the next values; noted with them: range symbols.
In the case of `Cc1c(-c2nc3cc(CN4CC(C)(CO)C4)c(OC(F)F)cc3o2)cccc1-c1cccc(-c2nc3cc(CN4CCC[C@H]4C(=O)O)c(OC(F)F)cc3o2)c1C` [Example 78, ((6-(difluoromethoxy)-2-(3′-(6-(difluoromethoxy)-5-((3-(hydroxymethyl)-3-methylazetidin-1-yl)methyl)benzo[d]oxazol-2-yl)-2,2′-dimethyl-[1,1′-biphenyl]-3-yl)benzo[d]oxazol-5-yl)methyl)-L-proline], the IC50 lay within 0.1 to 5 nM.

`Cc1c(-c2nc3cc(CN4CC(C)(C#N)C4)c(OC(F)F)cc3o2)cccc1-c1cccc(-c2nc3cc(CN4CCC[C@H]4C(=O)O)c(OC(F)F)cc3o2)c1C` [Example 79, ((2-(3′-(5-((3-cyano-3-methylazetidin-1-yl)methyl)-6-(difluoromethoxy)benzo[d]oxazol-2-yl)-2,2′-dimethyl-[1,1′-biphenyl]-3-yl)-6-(difluoromethoxy)benzo[d]oxazol-5-yl)methyl)-L-proline] returned an IC50 of 0.1 to 5 nM.

`Cc1c(-c2nc3cc(CN4CC(=CC#N)C4)c(OC(F)F)cc3o2)cccc1-c1cccc(-c2nc3cc(CN4CCC[C@H]4C(=O)O)c(OC(F)F)cc3o2)c1C` [Example 82, ((2-(3′-(5-((3-(cyanomethylene)azetidin-1-yl)methyl)-6-(difluoromethoxy)benzo[d]oxazol-2-yl)-2,2′-dimethyl-[1,1′-biphenyl]-3-yl)-6-(difluoromethoxy)benzo[d]oxazol-5-yl)methyl)-L-proline] gave an IC50 of 0.1 to 5 nM.

As for `CC1(C)CN(Cc2cc3nc(-c4cccc(-c5cccc(-c6nc7cc(CN8CCC[C@H]8C(=O)O)c(OC(F)F)cc7o6)c5C#N)c4C#N)oc3cc2OC(F)F)C1` [Example 83, ((2-(2,2′-dicyano-3′-(6-(difluoromethoxy)-5-((3,3-dimethylazetidin-1-yl)methyl)benzo[d]oxazol-2-yl)-[1,1′-biphenyl]-3-yl)-6-(difluoromethoxy)benzo[d]oxazol-5-yl)methyl)-L-proline], the IC50 is 5 to 50 nM.

In the case of `Cc1c(-c2nc3cc(CN4CCC[C@H]4C(=O)O)c(OC(F)F)cc3o2)cccc1-c1cccc(-c2nc3cc(CN4CC(C)C(C)C4)cc(C(F)(F)F)c3o2)c1C` (stereo partly drawn) [Example 84, ((6-(difluoromethoxy)-2-(3′-(5-((3,4-dimethylpyrrolidin-1-yl)methyl)-7-(trifluoromethyl)benzo[d]oxazol-2-yl)-2,2′-dimethyl-[1,1′-biphenyl]-3-yl)benzo[d]oxazol-5-yl)methyl)-L-proline], the IC50 fell in the range of 0.1 to 5 nM.

`Cc1c(-c2nc3cc(CN4CCC[C@@H]4C(=O)O)c(OC(F)F)cc3o2)cccc1-c1cccc(-c2nc3cc(CN4CC(C)(C)C4)c(OC(F)F)cc3o2)c1C#N` [Example 87, ((2-(2′-cyano-3′-(6-(difluoromethoxy)-5-((3,3-dimethylazetidin-1-yl)methyl)benzo[d]oxazol-2-yl)-2-methyl-[1,1′-biphenyl]-3-yl)-6-(difluoromethoxy)benzo[d]oxazol-5-yl)methyl)-D-proline] displayed an IC50 of 0.1 to 5 nM.

Regarding `Cc1c(-c2nc3cc(CN4CC[C@@H](C(=O)O)C4)c(OC(F)F)cc3o2)cccc1-c1cccc(-c2nc3cc(CN4CCC(C)C4)cc(C(F)(F)F)c3o2)c1C` (stereo partly drawn) [Example 91, (3R)-1-((6-(difluoromethoxy)-2-(2,2′-dimethyl-3′-(5-((3-methylpyrrolidin-1-yl)methyl)-7-(trifluoromethyl)benzo [d]oxazol-2-yl)-[1,1′-biphenyl]-3-yl)benzo[d]oxazol-5-yl)methyl)pyrrolidine-3-carboxylic acid], the IC50 lay within 0.1 to 5 nM.

Consider `Cc1c(-c2nc3cc(CN4CC[C@H](C(=O)O)C4)c(OC(F)F)cc3o2)cccc1-c1cccc(-c2nc3cc(CN4CCC(C)C4)cc(C(F)(F)F)c3o2)c1C` (stereo partly drawn) [Example 92, (3S)-1-((6-(difluoromethoxy)-2-(2,2′-dimethyl-3′-(5-((3-methylpyrrolidin-1-yl)methyl)-7-(trifluoromethyl)benzo [d]oxazol-2-yl)-[1,1′-biphenyl]-3-yl)benzo[d]oxazol-5-yl)methyl)pyrrolidine-3-carboxylic acid], for which the IC50 was 0.1 to 5 nM.

`CCNCc1cc2nc(-c3cccc(-c4cccc(-c5nc6cc(CN7CCC[C@H]7C(=O)O)c(OC(F)F)cc6o5)c4C)c3C)oc2cc1Cl` [Example 97, ((2-(3′-(6-chloro-5-((ethylamino)methyl)benzo[d]oxazol-2-yl)-2,2′-dimethyl-[1,1′-biphenyl]-3-yl)-6-(difluoromethoxy)benzo[d]oxazol-5-yl)methyl)-L-proline] displayed an IC50 of 0.1 to 5 nM.

The values are drawn from US12187713B2, “Immunomodulators, compositions and methods thereof” (Betta Pharmaceuticals Co., Ltd, priority 2019, dated 2025).
